We go through nine molecules from patent publication US9365574B2, “Soluble guanylate cyclase activators” (Merck Sharp & Dohme Corp., priority 2010, dated 2016).

In the experiment the test system is Spontaneously hypertensive rats (SHR). Description: Acute Efficacy in Spontaneously Hypertensive Rats (SHR), telemetry blood pressure. In kind it is in vivo, rat. Particulars: single oral dose 0.3 mpk P.O. From the text: Acute Efficacy in Spontaneously Hypertensive Rats (SHR)
Spontaneously hypertensive rats (SHR, male, Charles River) were implanted with DSI TA11PA-C40 telemetry device (Data Sciences, Inc., St. Paul, Minn.) under isoflurane or ketamine/metomidine anesthesia. The telemetry unit catheter was inserted into the descending aorta via the femoral artery and the telemetry device was implanted subcutaneously in the left flank area. Animals were allowed to recover from surgery for 14 days before the start of any studies. Blood pressure, heart rate, and activity signals from conscious, freely moving rats were recorded continuously for 30 seconds every 10 minutes. On the day prior to administration of compound, a single oral dose of vehicle (10% transcutol/20% Cremophor/70% water) was administered to all animals to establish baseline control data. The blood pressure lowering efficacy of compound (PO) or vehicle was evaluated following a single oral gavage. Data were collected as hourly averages, and changes in blood pressure were calculated by subtracting control baseline data on an hourly basis. Animals were maintained on normal diet with a 12 hour light-dark cycle.
Maximum peak decreases of systolic blood pressure (SBP) in SHR at a particular P.O. dose (mpk milligrams per kilogram) for the following representative compounds are provided.
Take `CNc1nc(-c2nn(CCC(F)(F)C(F)(F)F)c3ncccc23)nc2c1C(C)(c1ccccc1)C(=O)N2` (stereo not drawn) [Example 186, 5-Methyl-4-(Methylamino)-2-[1-(3,3,4,4,4-Pentafluorobutyl)-1H-Pyrazolo[3,4-B]Pyridin-3-yl]-5-Phenyl-5,7-Dihydro-6H-Pyrrolo[2,3-D]Pyrimidin-6-One]: the “Maximum peak decrease of systolic blood pressure (SBP) in SHR, Category” value (“Maximum peak decrease” below) was “B (Category B=SBP in SHRs 25-40 mmHg)”.
Consider `CNc1nc(-c2nn(CCC(F)(F)C(F)(F)F)c3ncccc23)nc2c1C(C)(C(=O)NC1CC1)C(=O)N2` (stereo not drawn) [Example 187, N-Cyclopropyl-5-Methyl-4-(Methylamino)-6-Oxo-2-[1-(3,3,4,4,4-Pentafluorobutyl)-1H-Pyrazolo[3,4-B]Pyridin-3-yl]-6,7-Dihydro-5H-Pyrrolo[2,3-D]Pyrimidine-5-Carboxamide], for which the “Maximum peak decrease” value is “B (Category B=SBP in SHRs 25-40 mmHg)”.
On to `CNc1nc(-c2nn(CCC(F)(F)C(F)(F)F)c3cc(Cl)ccc23)nc2c1C(C)(c1ccccc1)C(=O)N2` (stereo not drawn) [Example 188, 2-[6-Chloro-1-(3,3,4,4,4-Pentafluorobutyl)-1H-Indazol-3-yl]-5-Methyl-4-(Methylamino)-5-Phenyl-5,7-Dihydro-6H-Pyrrolo[2,3-D]Pyrimidin-6-One], for which the “Maximum peak decrease” value was “B (Category B=SBP in SHRs 25-40 mmHg)”.
Turning to `CNc1nc(-c2nn(CCC(F)(F)C(F)(F)F)c3ncccc23)nc2c1C(C)(c1nnc(C)o1)C(=O)N2` (stereo not drawn) [Example 189, 5-Methyl-4-(Methylamino)-5-(5-Methyl-1,3,4-Oxadiazol-2-yl)-2-[1-(3,3,4,4,4-Pentafluorobutyl)-1H-Pyrazolo [3,4-B]Pyridin-3-yl]-5,7-Dihydro-6H-Pyrrolo[2,3-D]Pyrimidin-6-One], the “Maximum peak decrease” value is “C (Category C=SBP in SHRs>40 mmHg)”.
As to `CC1(c2ccccc2)C(=O)Nc2nc(-c3nc(CCC(F)(F)C(F)(F)F)c4ncccn34)nc(N)c21` (stereo not drawn) [Example 191, 4-Amino-5-Methyl-2-[8-(3,3,4,4,4-Pentafluorobutyl)Imidazo[1,5-A]Pyrimidin-6-yl]-5-Phenyl-5,7-Dihydro-6H-Pyrrolo[2,3-D]Pyrimidin-6-One], the “Maximum peak decrease” value is recorded as “B (Category B=SBP in SHRs 25-40 mmHg)”.
`CC1(C(N)=O)C(=O)Nc2nc(-c3nn(CCC(F)(F)C(F)(F)F)c4cc(F)ccc34)nc(N)c21` (stereo not drawn) [Example 192, 4-amino-2-[6-fluoro-1-(3,3,4,4,4-pentafluorobutyl)-1H-indazol-3-yl]-5-methyl-6-oxo-6,7-dihydro-5H-pyrrolo[2,3-d]pyrimidine-5-carboxamide]: the “Maximum peak decrease” value is on record as “B (Category B=SBP in SHRs 25-40 mmHg)”.
For `CC1(C(N)=O)C(=O)Nc2nc(-c3nn(CCC(F)(F)C(F)(F)F)c4ccccc34)nc(N)c21` (stereo not drawn) [Example 193, 4-amino-5-methyl-6-oxo-2-[1-(3,3,4,4,4-pentafluorobutyl)-1H-indazol-3-yl]-6,7-dihydro-5H-pyrrolo[2,3-d]pyrimidine-5-carboxamide], the “Maximum peak decrease” value was “C (Category C=SBP in SHRs>40 mmHg)”.
On to `CC1(C(=O)NC2CC2)C(=O)Nc2nc(-c3nn(CCC(F)(F)C(F)(F)F)c4ccccc34)nc(N)c21` (stereo not drawn) [Example 194, 4-amino-N-cyclopropyl-5-methyl-6-oxo-2-[1-(3,3,4,4,4-pentafluorobutyl)-1H-indazol-3-yl]-6,7-dihydro-5H-pyrrolo[2,3-d]pyrimidine-5-carboxamide], for which the “Maximum peak decrease” value is listed as “C (Category C=SBP in SHRs>40 mmHg)”.
On to `CC1(C(=O)NC2CC2)C(=O)Nc2nc(-c3nn(CCC(F)(F)C(F)(F)F)c4cc(F)ccc34)nc(N)c21` (stereo not drawn) [Example 195, 4-amino-N-cyclopropyl-2-[6-fluoro-1-(3,3,4,4,4-pentafluorobutyl)-1H-indazol-3-yl]-5-methyl-6-oxo-6,7-dihydro-5H-pyrrolo[2,3-d]pyrimidine-5-carboxamide], for which the “Maximum peak decrease” value is on record as “C (Category C=SBP in SHRs>40 mmHg)”.
